{"source": "paper PMC12505254", "about": "“PROTAC Enabling Formulation In Vivo: Implications of the Polymeric Carrier Eudragit E PO” (Molecular Pharmaceutics, 2025)", "key": {"[1]": {"assay": "Solubility of MS4078 in buffer and cFaSSIF types (24 h, 37°C)", "type": "physicochemical", "details": "thermodynamic from solid", "protocol": "The solubility of MS4078 was evaluated by weighing an excess amount of the compound into vials and adding a prewarmed buffer or cFaSSIF types (cFaSSIF1x , cFaSSIF5 x , and cFaSSIF10x ). The suspension was stirred at 37°C for 24 h at 300 rpm. Samples were withdrawn from the suspension, and centrifuged at 15000 rpm (Mikro 200 R, Hettich, Tuttlingen, Germany) and the supernatant was diluted 1:1 with ACN. The dissolved concentration was determined by ultraperformance liquid chromatography (UHPLC, see Section ). The experiments were carried out in triplicate.\nUHPLC analysis of MS4078 is described in detail in a previous publication of our group. In brief, the samples were analyzed at 271 nm using a Waters Acquity H-Class series UHPLC system (Waters Corporation, Eschborn, Germany). A gradient was applied using ACN and water with 0.1% (V/V) trifluoracetic acid as mobile phases. Separation was realized by a Waters Acquity BEH C8 column (2.1 × 50 mm, 1.7 μm)."}, "[2]": {"assay": "Pharmacokinetic study in mice (K–V i.v./p.o., SDD-V p.o.)", "type": "in vivo, mice (female CD-1)", "details": "0.5 mg/kg in K–V", "protocol": "To evaluate the in vivo performance of the MS4078 SDD formulation, pharmacokinetic studies in mice were conducted and compared to the corresponding Kolliphor solution vehicle. The API in Kolliphor vehicle (see Section ) and the SDD formulation were given in a single-dose study to female CD-1 mice (Charles River Laboratories, Sulzfeld, Germany). The animals were kept in group housing in conventional cages with elevated grids. Food and water were offered ad libitum to the animals.\nThe study was carried out at EMD Serono (Billerica, MA, USA). A total of 21 mice (female, CD-1) were divided into groups of 12 and 9 animals. The solution vehicle was prepared according to Section . Doses of 0.5 mg/kg of MS4078 were administered intravenously (dose volume: 5 mL/kg) to 12 animals and blood samples (retro-orbital) were sequentially drawn from 3 animals per sampling point at 0.1, 0.25, 0.5, 1, 2, 6, and 24 h after dosing. 10 mg/kg were administered orally (dose volume: 10 mL/kg) to the second group of 9 animals. After dosing, blood samples from 3 animals per sampling point were sequentially drawn at the time points described above, except for the 0.1 h sampling point. The blood cells were dissevered by centrifugation (2000 g, 5 min). Plasma samples were extracted using a protein precipitation reagent (ACN, 4:1 (V/V)). After the addition of 50 μL methanol, the concentration was determined by LC-MS/MS (generic method, based on tuning data).\nMouse PK studies of the enabling formulation were conducted at Nuvisan GmbH (Grafing, Germany). To determine oral bioavailability of MS4078/SDD, the SDD formulation (dose: 10 mg/kg MS4078) was weighed in, dispersed in a citrate vehicle (see Section ), and administered orally (gavage, dose volume: 10 mL/kg) to three female mice (Crl:CD1(ICR)). […] 50 μL of supernatant were diluted 1:1 with a solution of 0.1% formic acid in water and the concentration of MS4078 was determined by UHPLC-MS/MS (generic method, based on tuning data).\nPlasma concentrations were determined for each time point sampled. […]"}, "[3]": {"assay": "Two-stage precipitation assay simulating the conditions in mice", "type": "physicochemical", "protocol": "To determine the dissolution and precipitation of both the Kolliphor solution vehicle and the SDD dispersion in citrate vehicle upon the GI passage in vitro, a two-stage precipitation assay was conducted which had been developed internally. Therefore, the Kolliphor vehicle containing MS4078 and the dispersion of the SDD in citrate vehicle were prepared according to the descriptions in Sections and , respectively.\nAccording to McConnell et al., the volume of gastric fluid in mice is about 175 μL. […]\nThe setup of the two-stage precipitation experiments and an overview of the samples are depicted in Figure and Table . […] The concentration of MS4078 was determined by sampling and UHPLC analysis or the turbidity of the samples was analyzed in-line using the Cary3500 (Agilent, Santa Clara, CA, USA) (Figure D). […] As a first step, the optical density (OD) of the cFaSSIF types, Blank-DM (citrate vehicle/SGF pH 4 mixture without polymer or API) and P-DM (a solution of E PO in citrate vehicle/SGF pH 4 mixture) were measured in a range of 200–800 nm (Figure S2). […]\n1 Schematic setup of the two-stage precipitation experiments. […] All samples were centrifuged (15,000 rpm (Mikro 200 R)) for 60 s, and the supernatant was diluted with ACN and analyzed via UHPLC (see Section ). […]"}}, "note": "Where two headings read alike, the source gives them in different places.", "data": [{"smiles": "Cc1cc(Nc2ncc(Cl)c(Nc3ccccc3S(=O)(=O)C(C)C)n2)c(OC(C)C)cc1C1CCN(CC(=O)NCCNc2cccc3c2C(=O)N(C2CCC(=O)NC2=O)C3=O)CC1", "note": "(centres unmarked) [MS4078]", "values": [{"measurement": "solubility at 24 h", "setting": "[1]; aqueous buffer, citrate-phosphate buffer pH 5, 37°C, read-out: Solubility", "value": "~2", "unit": "µg/mL"}, {"measurement": "solubility at 24 h", "setting": "[1]; fassgf or other biorelevant, cFaSSIF5x pH 5, 37°C, read-out: Solubility in 5x concentrated cFaSSIF", "value": "~220", "unit": "µg/mL"}, {"measurement": "solubility at 24 h", "setting": "[1]; fassif, cFaSSIF1x pH 5, 37°C, read-out: Solubility S(cFaSSIF1x)", "value": 78, "unit": "µg/mL"}, {"measurement": "in vivo total clearance as % mouse liver blood flow", "setting": "[2]", "value": 20, "unit": "% mouse liver blood flow"}, {"measurement": "clearance", "setting": "[2]; female, CD-1, mouse, plasma, iv, read-out: in vivo total clearance (converted)", "value": 20.3, "unit": "mL/min/kg"}, {"measurement": "Vd", "setting": "[2]; female, CD-1, mouse, plasma, iv, read-out: volume of distribution (Vss)", "value": 1.05, "unit": "L/kg"}, {"measurement": "Dissolved MS4078 concentration in acceptor compartment maintained until end of experiment", "setting": "[3]; SDD-DM transferred to cFaSSIF10x, from the 20 min sampling point", "value": 30, "unit": "µg/mL"}, {"measurement": "Dissolved MS4078 concentration in acceptor compartment after phase separation (plateau)", "setting": "[3]; SDD-DM transferred to cFaSSIF20x", "value": "~220", "unit": "µg/mL"}]}]}
